Counter-ions that a name gives are not always drawn. Like-named read-outs stand apart in the source and are kept apart here.

For assay [1], the target named is BIR3 domain of human XIAP (residues 252-350) (Homo sapiens (Human), UniProt P98170). The experiment in a line: XIAP in vitro competitive displacement binding assay (fluorescence polarization). The settings on record: for IC50: read-out: IC50 or PI Xiap: IC50. For orientation: Fluorescence polarisation rises when a labelled molecule tumbles more slowly, as on binding a larger partner.

For assay [2], the target named is BIR3 domain of human cIAP-1 (residues 267-363) (Homo sapiens (Human), UniProt Q13490). The experiment in a line: cIAP-1 in vitro competitive displacement binding assay (fluorescence polarization; Probe A AVPIK(5&6FAM)-amide or Probe B AbuRPFK(5&6FAM)-amide).
[3] abbreviates: Probe B AbuRPFK(5&6FAM)-amide, read-out: IC50 or PI cIAP1: IC50.
Setting [4] is: Probe A AVPIK(5&6FAM)-amide, read-out: IC50 or PI cIAP1: IC50.
Setting [5] is: read-out: IC50 or PI cIAP1: IC50.

Usually IC50 stands for the concentration that gives 50% inhibition. Consider `COC[C@H]1CN[C@H](C)CN1CC(=O)N1CC(C)(C)c2nnc(Cl)cc21` [Example 183, 1-{3-Chloro-7,7-dimethyl-5H,6H,7H-pyrrolo[3,2-c]pyridazin-5-yl}-2-[(2R,5R)-2-(methoxymethyl)-5-methylpiperazin-1-yl]ethan-1-one hydrochloride], for which the IC50 in assay [1] was 1700 nM; in assay [2] it was less than 1000 nM; in assay [2] (setting [3]), 630 nM.

Regarding `C[C@@H]1CN(CC(=O)N2CCc3cc(Br)ccc32)CCN1` [Example 11, 1-(5-Bromo-2,3-dihydro-indol-1-yl)-2-((R)-3-methyl-piperazin-1-yl)-ethanone], the inhibition at 100 µM is 59% in assay [1] (1 h, @ 100 μM, read-out: IC50 or PI Xiap: PI) and 46% in assay [2] (3 h, Probe A, @ 100 μM, read-out: IC50 or PI cIAP1: PI).

On to `C[C@@H]1CN(CC(=O)N2C[C@](C)(c3ccccc3)c3ccc(C#N)cc32)[C@@H](Cn2cccn2)CN1` [Example 155, (3R)-3-Methyl-1-{2-[(2R,5R)-5-methyl-2-(1H-pyrazol-1-ylmethyl)piperazin-1-yl]acetyl}-3-phenyl-2,3-dihydro-1H-indole-6-carbonitrile], for which the IC50 in assay [1] was found to be 72 nM; in assay [2] (setting [3]) it was 260 nM.

With `CC[C@H]1CN[C@H](C)CN1CC(=O)N1CC(C)(C)c2cnc(Cn3cccn3)cc21` [Example 95, 1-[3,3-Dimethyl-6-(1H-pyrazol-1-ylmethyl)-1H,2H,3H-pyrrolo[3,2-c]pyridin-1-yl]-2-[(2S,5R)-2-ethyl-5-methylpiperazin-1-yl]ethan-1-one], the IC50 in assay [1] was 3100 nM; in assay [2] (setting [3]) it was 680 nM.

Take `C[C@@H]1CN(CC(=O)N2CC3(CCN(C(=O)OCc4ccccc4)CC3)c3ccc(Cl)cc32)CCN1` [Example 23, Benzyl 6-chloro-1-{2-[(3R)-3-methyl-piperazin-1-yl]acetyl}-1,2-dihydro-spiro[indole-3,4′-piperidine]-1′-carboxylate hydrochloride salt]: the IC50 worked out at 18000 nM in assay [1] and 11000 nM in assay [2] (setting [4]).

Take `C[C@@H]1CN(CC(=O)N2C[C@@](C)(c3ccccc3)c3ccc(C#N)cc32)[C@@H](Cn2cccn2)CN1` [Example 154, (3S)-3-Methyl-1-{2-[(2R,5R)-5-methyl-2-(1H-pyrazol-1-ylmethyl)piperazin-1-yl]acetyl}-3-phenyl-2,3-dihydro-1H-indole-6-carbonitrile]: the half-inhibitory concentration (IC50) in assay [1] is 130 nM; in assay [2] (setting [3]), 170 nM.

Turning to `C[C@@H]1CN(CC(=O)N2CCc3cccnc32)CCN1` [Example 36, 1-(2,3-Dihydro-pyrrolo[2,3-b]pyridin-1-yl)-2-((R)-3-methyl-piperazin-1-yl)-ethanone dihydrochloride salt], the half-inhibitory concentration (IC50) in assay [1] stood at 240000 nM. Moreover, in assay [2] (3 h, read-out: IC50 or PI cIAP1: PI), the inhibition at 500 µM came to 56%.

On to `CC(C)S(=O)(=O)c1cc2c(cc1F)C(C)(C)CN2C(=O)CN1CCN[C@H](C)C1` [Example 52, 1-[5-Fluoro-3,3-dimethyl-6-(propane-2-sulfonyl)-2,3-dihydro-indol-1-yl]-2-((R)-3-methyl-piperazin-1-yl)-ethanone diydrochloride salt], for which the half-inhibitory concentration (IC50) was found to be 950 nM in assay [1] and 2500 nM in assay [2] (setting [3]).

As to `C[C@@H]1CN(CC(=O)N2CC3(CC3)c3ccc(Cl)cc32)CCN1` [Example 53, 1-{6′-Chloro-1′,2′-dihydrospiro[cyclopropane-1,3′-indole]-1′-yl}-2-[(3R)-3-methyl-piperazin-1-yl]ethan-1-one hydrochloride salt], the half-maximal inhibitory concentration (IC50) amounted to 9700 nM in assay [1] and 9800 nM in assay [2] (setting [3]).

As for `C[C@@H]1CN([C@@H](C)C(=O)N2CC(C)(C)c3ccc(C#N)cc32)CCN1` [Example 196, 3,3-Dimethyl-1-[(2S)-2-[(3R)-3-methylpiperazin-1-yl]propanoyl]-2,3-dihydro-1H-indole-6-carbonitrile hydrochloride], the IC50 amounted to 5600 nM in assay [1] and 31000 nM in assay [2] (setting [3]).

Consider `COc1ccc2c(c1)N(C(=O)CN1CCN[C@H](C)C1)CC2` [Example 5, 1-(6-Methoxy-2,3-dihydro-indol-1-yl)-2-((R)-3-methyl-piperazin-1-yl)-ethanone], for which the inhibition at 160 µM in assay [1] (1 h, @ 160 μM, read-out: IC50 or PI Xiap: PI) worked out at 49%. In addition, the IC50 in assay [2] (setting [4]) came out at 78000 nM.

On to `C[C@@H]1CN(CC(=O)N2CC(C)(C)c3ccc(Cl)cc32)[C@@H](Cn2cccn2)CN1` [Example 138, 1-(6-Chloro-3,3-dimethyl-2,3-dihydro-1H-indol-1-yl)-2-[(2R,5R)-5-methyl-2-(1H-pyrazol-1-ylmethyl)piperazin-1-yl]ethan-1-one hydrochloride], for which the values for the IC50 in assay [1] and in assay [2] (setting [3]) were 640 nM and 330 nM, respectively.

Turning to `C[C@@H]1CN(CC(=O)N2CC(C)(C)c3ncc(C(=O)c4ccccc4)cc32)[C@@H](CN2CCCC2=O)CN1` [Example 187, 1-{[(2R,5R)-1-(2-{6-Benzoyl-3,3-dimethyl-1H,2H,3H-pyrrolo[3,2-b]pyridin-1-yl}-2-oxoethyl)-5-methylpiperazin-2-yl]methyl}pyrrolidin-2-one dihydrochloride], the IC50 amounted to 110 nM in assay [1] and 32 nM in assay [2] (setting [5]).

With `COC[C@H]1CN[C@H](C)CN1CC(=O)N1CC(C)(C)c2cnc(N(C)c3ccccc3)cc21` [Example 84, 1-[3,3-Dimethyl-6-(methyl-phenyl-amino)-2,3-dihydro-pyrrolo[3,2-c]pyridin-1-yl]-2-((2R,5R)-2-methoxymethyl-5-methyl-piperazin-1-yl)-ethanone hydrochloride salt], the IC50 in assay [1] is 8800 nM; in assay [2], less than 10000 nM; in assay [2] (setting [3]), 1300 nM.

On to `COC[C@H]1CN[C@H](C)CN1CC(=O)N1C[C@](C)(COC)c2ccc(Br)cc21` [Example 168, 1-[(3R)-6-Bromo-3-(methoxymethyl)-3-methyl-2,3-dihydro-1H-indol-1-yl]-2-[(2R,5R)-2-(methoxymethyl)-5-methylpiperazin-1-yl]ethan-1-one hydrochloride], for which the results for the IC50 in assay [1] and in assay [2] (setting [3]) were 4000 nM and 890 nM, respectively.

For the compound `C[C@@H]1CN(CC(=O)N2CCc3ccc(OC(F)(F)F)cc32)CCN1` [Example 28, 2-((R)-3-Methyl-piperazin-1-yl)-1-(6-trifluoromethoxy-2,3-dihydro-indol-1-yl)-ethanone hydrochloride salt], the half-inhibitory concentration (IC50) in assay [1] was found to be 17000 nM; in assay [2] (setting [4]), 42000 nM.

`C[C@@H]1CN(CC(=O)N2CCc3ccc(C(=O)N(C)C)cc32)CCN1` [Example 17, 1-[2-((R)-3-Methyl-piperazin-1-yl)-acetyl]-2,3-dihydro-1H-indole-6-carboxylic acid dimethylamide]: the 50% inhibitory concentration (IC50) in assay [1] came out at 110000 nM. Moreover, the inhibition at 160 µM in assay [2] (3 h, Probe A, @ 160 μM, read-out: IC50 or PI cIAP1: PI) was 44%.

With `C[C@@H]1CN(CC(=O)N2CC(C)(C)c3c(Cl)cccc32)CCN1` [Example 19, 1-(4-Chloro-3,3-dimethyl-2,3-dihydro-indol-1-yl)-2-((R)-3-methyl-piperazin-1-yl)-ethanone], the half-maximal inhibitory concentration (IC50) was determined as 150000 nM in assay [1] and 17000 nM in assay [2] (setting [4]).

`C[C@@H]1CN(CC(=O)N2CCc3ccc(S(=O)(=O)N(C)C)cc32)CCN1` [Example 32, 1-[2-((R)-3-Methyl-piperazin-1-yl)-acetyl]-2,3-dihydro-1H-indole-6-sulfonic acid dimethylamide]: the results for the IC50 in assay [1] and in assay [2] (setting [4]) were 2600 nM and 57000 nM, respectively.

In the case of `C[C@@H]1CN(CC(=O)N2CC3(CCCC3)c3ccc(Cl)cc32)CCN1` [Example 50, 1-{6′-Chloro-1′,2′-dihydrospiro[cyclopentane-1,3′-indole]-1′-yl}-2-[(3R)-3-methyl-piperazin-1-yl]ethan-1-one hydrochloride salt], the IC50 in assay [1] came to 14000 nM; in assay [2] (setting [3]) it was 15000 nM.

For the compound `COC[C@H]1CN[C@H](C)CN1CC(=O)N1CC(C)(C)c2ccc(C#N)cc21` [Example 117, 1-{2-[(2R,5R)-2-(Methoxymethyl)-5-methylpiperazin-1-yl]acetyl}-3,3-dimethyl-2,3-dihydro-1H-indole-6-carbonitrile hydrochloride], the figures for the IC50 in assay [1] and in assay [2] (setting [3]) were 790 nM and 710 nM, respectively.

Regarding `C[C@@H]1CN(CC(=O)N2CCc3ccc(S(=O)(=O)c4ccccc4)cc32)CCN1` [Example 33, 1-(6-Benzene-sulfonyl-2,3-dihydro-indol-1-yl)-2-((R)-3-methyl-piperazin-1-yl)-ethanone hydrochloride salt], the IC50 is 1200 nM in assay [1], less than 10000 nM in assay [2] and 3800 nM in assay [2] (setting [4]).

As to `COC[C@H]1CN[C@H](C)CN1CC(=O)N1CC(C)(c2ccccn2)c2ccc(C#N)cc21` (mixture of isomers) [Example 156, 1-{2-[(2R,5R)-2-(Methoxymethyl)-5-methylpiperazin-1-yl]acetyl}-3-methyl-3-(pyridin-2-yl)-2,3-dihydro-1H-indole-6-carbonitrile hydrochloride [mixture of diastereoisomers]], the concentration for half-maximal inhibition (IC50) worked out at 1500 nM in assay [1] and 1300 nM in assay [2] (setting [3]).

In the case of `COC[C@H]1CN[C@H](C)CN1CC(=O)N1CC(C)(C)c2cc(C)c(C#N)cc21` [Example 134, 1-{2-[(2R,5R)-2-(Methoxymethyl)-5-methylpiperazin-1-yl]acetyl}-3,3,5-trimethyl-2,3-dihydro-1H-indole-6-carbonitrile], the IC50 in assay [1] is 780 nM; in assay [2] (setting [3]), 590 nM.

Consider `COC[C@H]1CN[C@H](C)CN1CC(=O)N1CC(C)(C)c2cnc(-c3cnn(C)c3)cc21` [Example 124, 1-[3,3-Dimethyl-6-(1-methyl-1H-pyrazol-4-yl)-1H,2H,3H-pyrrolo[3,2-c]pyridin-1-yl]-2-[(2R,5R)-2-(methoxymethyl)-5-methylpiperazin-1-yl]ethan-1-one dihydrochloride], for which the IC50 turned out to be 4000 nM in assay [1] and 550 nM in assay [2] (setting [5]).

Source of the values: patent US9018214B2, “Bicyclic heterocycle compounds and their uses in therapy” (Astex Therapeutics Limited, priority 2011, dated 2015).
